Assay results as given in US9062124B2, “GIP-based mixed agonists for treatment of metabolic disorders and obesity” (priority 2008, dated 2015).
Where a SMILES comes first, the peptide text is derived from it. Bridges are numbered along the chain shown (N, C = ends). [ ]: non-standard residue; d: D form. Aib = CC(C)(N)C(=O)O

What was measured:
Type in all cases: cell-based
[1] = target: T1, glucagon receptor (Homo sapiens, UniProt P47871); test: cAMP synthesis functional assay (firefly luciferase reporter in HEK293 cells), glucagon receptor
T1 construct: expressed in transfected cells; host or cells: HEK293

[2] = target: T2, GLP-1 receptor (Homo sapiens, UniProt P43220); test: cAMP synthesis functional assay (firefly luciferase reporter in HEK293 cells), GLP-1 receptor
T2 construct: expressed in transfected cells; host or cells: HEK293

[3] = target: T3, GIP receptor (Homo sapiens, UniProt P48546); test: cAMP synthesis functional assay (firefly luciferase reporter in HEK293 cells), GIP receptor
T3 construct: expressed in transfected cells; host or cells: HEK293
T3 sequence (P48546 22-466): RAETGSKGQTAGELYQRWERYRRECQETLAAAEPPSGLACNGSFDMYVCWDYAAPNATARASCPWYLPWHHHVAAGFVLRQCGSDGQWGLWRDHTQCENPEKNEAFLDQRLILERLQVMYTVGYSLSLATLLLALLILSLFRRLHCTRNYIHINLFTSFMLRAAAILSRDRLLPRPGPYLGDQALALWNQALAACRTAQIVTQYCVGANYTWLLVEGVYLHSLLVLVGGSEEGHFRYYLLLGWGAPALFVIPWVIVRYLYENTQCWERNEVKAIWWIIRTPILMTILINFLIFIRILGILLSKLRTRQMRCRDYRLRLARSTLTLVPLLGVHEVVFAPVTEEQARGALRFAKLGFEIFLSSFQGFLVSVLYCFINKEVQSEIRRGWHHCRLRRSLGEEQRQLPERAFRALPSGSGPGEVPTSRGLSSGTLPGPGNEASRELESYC

[4] = test system: glucagon receptor, GLP-1 receptor or GIP receptor; test: Agonist profile across receptors assigned from the cAMP reporter assay data; conditions: assigned from the in vitro EC50 data of Tables 1-4
[5] = Table 1, relative to the native hormone of the indicated receptor
[6] = GLP-1 Receptor EC50, nM, Table 1
[7] = Glucagon Receptor EC50, cAMP luciferase reporter assay as in Example 16
[8] = relative to the standard (Std.) EC50 of the same run

T1 sequence (P47871 26-477): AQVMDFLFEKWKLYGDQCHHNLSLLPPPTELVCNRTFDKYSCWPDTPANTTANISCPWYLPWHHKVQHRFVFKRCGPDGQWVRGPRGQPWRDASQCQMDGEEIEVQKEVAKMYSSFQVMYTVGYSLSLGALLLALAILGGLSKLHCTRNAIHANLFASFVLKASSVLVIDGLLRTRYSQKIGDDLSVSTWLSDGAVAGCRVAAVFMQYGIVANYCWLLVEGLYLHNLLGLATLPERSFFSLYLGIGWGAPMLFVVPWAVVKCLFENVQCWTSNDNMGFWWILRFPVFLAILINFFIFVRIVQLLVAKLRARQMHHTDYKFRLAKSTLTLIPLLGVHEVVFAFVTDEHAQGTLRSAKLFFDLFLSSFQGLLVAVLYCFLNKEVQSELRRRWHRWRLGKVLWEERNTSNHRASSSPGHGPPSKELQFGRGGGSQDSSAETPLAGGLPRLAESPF
T2 sequence (P43220 24-463, species assumed): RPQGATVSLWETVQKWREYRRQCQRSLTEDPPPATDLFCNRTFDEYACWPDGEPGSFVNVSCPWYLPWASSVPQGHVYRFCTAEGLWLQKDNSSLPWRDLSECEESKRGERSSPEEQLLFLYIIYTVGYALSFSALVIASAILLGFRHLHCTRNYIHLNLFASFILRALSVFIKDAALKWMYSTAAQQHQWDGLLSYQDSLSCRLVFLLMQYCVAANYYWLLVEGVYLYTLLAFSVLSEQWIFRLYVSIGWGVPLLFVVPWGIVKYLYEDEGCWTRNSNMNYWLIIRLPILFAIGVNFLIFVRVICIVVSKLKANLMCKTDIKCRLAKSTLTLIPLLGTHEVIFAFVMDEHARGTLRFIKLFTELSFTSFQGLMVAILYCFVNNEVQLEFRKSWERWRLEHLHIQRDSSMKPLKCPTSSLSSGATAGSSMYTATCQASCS

| SMILES | Glucagon Receptor relative activity [1, 5] [%] | EC50 [2, 6] [nM] | GLP-1 Receptor relative activity [2, 5] [%] | GIP Receptor relative activity [3, 5] [%] | receptor activity profile (glucagon / GLP-1 / GIP agonism) [4] | EC50 [1, 7] [nM] | Glucagon Receptor relative activity [1, 8] [%] | GLP-1 Receptor relative activity [2, 8] [%] | GIP Receptor relative activity [3, 8] [%] | other results |
| --- | --- | --- | --- | --- | --- | --- | --- | --- | --- | --- |
| CC[C@H](C)[C@H](NC(=O)[C@H](CO)NC(=O)[C@H](Cc1ccc(O)cc1)NC(=O)[C@H](CC(=O)O)NC(=O)[C@H](CO)NC(=O)[C@@H](NC(=O)[C@H](Cc1ccccc1)NC(=O)[C@@H](NC(=O)CNC(=O)[C@H](CCC(=O)O)NC(=O)C(C)(C)NC(=O)[C@@H](N)Cc1ccc(O)cc1)[C@@H](C)O)[C@@H](C)O)C(=O)N[C@@H](Cc1ccc(O)cc1)C(=O)N[C@@H](CC(C)C)C(=O)N[C@@H](CC(=O)O)C(=O)N[C@H]1CCC(=O)NCCCC[C@@H](C(=O)N[C@@H](CCC(=O)O)C(=O)N[C@@H](Cc2ccccc2)C(=O)N[C@H](C(=O)N[C@@H](CC(N)=O)C(=O)N[C@@H](Cc2c[nH]c3ccccc23)C(=O)N[C@@H](CC(C)C)C(=O)N[C@@H](CC(C)C)C(=O)N[C@@H](C)C(=O)NCC(=O)N[C@@H](CCCNC(=N)N)C(=O)N2CCC[C@H]2C(=O)N[C@@H](CO)C(=O)N[C@@H](CO)C(=O)NCC(=O)N[C@@H](C)C(=O)N2CCC[C@H]2C(=O)N2CCC[C@H]2C(=O)N2CCC[C@H]2C(=O)N[C@@H](CO)C(=O)N[C@@H](CS)C(N)=O)C(C)C)NC(=O)[C@H](C)NC(=O)[C@H](C)NC(=O)[C@H](CCC(N)=O)NC1=O [mt-204] (H-Y[Aib]EGTFTSDYSIYLDEQAAKEFVNWLLAGRPSSGAPPPSC-NH2; lactam 16-20; N-terminus assumed) | 0.06 | 0.018 | 161.11 | 19.73 | exemplary GLP-1/GIP co-agonist peptides |  |  |  |  | EC50 ([1]; Glucagon Receptor EC50, nM, Table 1): 108 nM; EC50 ([3]; GIP Receptor EC50, nM, Table 1): 0.147 nM |
| CC[C@H](C)[C@H](NC(=O)[C@H](CC(C)C)NC(=O)[C@H](Cc1c[nH]c2ccccc12)NC(=O)[C@H](CC(N)=O)NC(=O)[C@@H](NC(=O)[C@H](Cc1ccccc1)NC(=O)[C@H](CCC(=O)O)NC(=O)[C@@H]1CCCCNC(=O)CC[C@H](NC(=O)[C@H](CC(=O)O)NC(=O)[C@H](CC(C)C)NC(=O)[C@H](Cc2ccc(O)cc2)NC(=O)[C@H](Cc2ccc(O)cc2)NC(=O)[C@H](CO)NC(=O)[C@H](Cc2ccc(O)cc2)NC(=O)[C@H](CC(=O)O)NC(=O)[C@H](CO)NC(=O)[C@@H](NC(=O)[C@H](Cc2ccccc2)NC(=O)[C@@H](NC(=O)CNC(=O)[C@H](CCC(N)=O)NC(=O)C(C)(C)NC(=O)[C@@H](N)Cc2ccc(O)cc2)[C@@H](C)O)[C@@H](C)O)C(=O)N[C@@H](CCC(N)=O)C(=O)N[C@@H](C)C(=O)N[C@@H](C(C)C)C(=O)N1)C(C)C)C(=O)N[C@@H](C)C(=O)NCC(=O)NCC(=O)N1CCC[C@H]1C(=O)N[C@@H](CO)C(=O)N[C@@H](CO)C(=O)NCC(=O)N[C@@H](C)C(=O)N1CCC[C@H]1C(=O)N1CCC[C@H]1C(=O)N1CCC[C@H]1C(=O)N[C@@H](CO)C(N)=O [mt-162] (H-Y[Aib]QGTFTSDYSYYLDEQAVKEFVNWLIAGGPSSGAPPPS-NH2; lactam 16-20; N-terminus assumed) | 0.97 | 0.011 | 109.09 | 25.74 | exemplary GLP-1/GIP co-agonist peptides |  |  |  |  |  |
| CC[C@H](C)[C@H](NC(=O)[C@H](CO)NC(=O)[C@H](Cc1ccc(O)cc1)NC(=O)[C@H](CC(=O)O)NC(=O)[C@H](CO)NC(=O)[C@@H](NC(=O)[C@H](Cc1ccccc1)NC(=O)[C@@H](NC(=O)CNC(=O)[C@H](CCC(N)=O)NC(=O)C(C)(C)NC(=O)[C@@H](N)Cc1ccc(O)cc1)[C@@H](C)O)[C@@H](C)O)C(=O)N[C@@H](Cc1ccc(O)cc1)C(=O)N[C@@H](CC(C)C)C(=O)N[C@@H](CC(=O)O)C(=O)NC(C)(C)C(=O)N[C@@H](CCC(N)=O)C(=O)N[C@@H](C)C(=O)N[C@@H](C)C(=O)N[C@@H](CCC(N)=O)C(=O)N[C@@H](CCC(=O)O)C(=O)N[C@@H](Cc1ccccc1)C(=O)N[C@H](C(=O)N[C@@H](CC(N)=O)C(=O)N[C@@H](Cc1c[nH]c2ccccc12)C(=O)N[C@@H](CC(C)C)C(=O)N[C@@H](CC(C)C)C(=O)N[C@@H](C)C(=O)NCC(=O)NCC(=O)N1CCC[C@H]1C(=O)N[C@@H](CO)C(=O)N[C@@H](CO)C(=O)NCC(=O)N[C@@H](C)C(=O)N1CCC[C@H]1C(=O)N1CCC[C@H]1C(=O)N1CCC[C@H]1C(=O)N[C@@H](CO)C(=O)N[C@@H](CS)C(N)=O)C(C)C [mt-242] (H-Y[Aib]QGTFTSDYSIYLD[Aib]QAAQEFVNWLLAGGPSSGAPPPSC-NH2; N-terminus assumed) |  |  |  |  | exhibited activities of glucagon/GLP-1/GIP triagonists |  |  |  |  | EC50 ([1]; Glucagon Receptor EC50, nM, Table 2, linear peptides with AIB at position 16 and/or 20): 1.11 nM; Glucagon Receptor relative activity ([1]; Table 2): 9.58%; EC50 ([2]; GLP-1 Receptor EC50, nM, Table 2): 0.102 nM; GLP-1 Receptor relative activity ([2]; Table 2): 29.41%; EC50 ([3]; GIP Receptor EC50, nM, Table 2): 0.078 nM; GIP Receptor relative activity ([3]; Table 2): 14.10% |
| CC[C@H](C)[C@H](NC(=O)[C@H](CO)NC(=O)[C@H](Cc1ccc(O)cc1)NC(=O)[C@H](CC(=O)O)NC(=O)[C@H](CO)NC(=O)[C@@H](NC(=O)[C@H](Cc1ccccc1)NC(=O)[C@@H](NC(=O)CNC(=O)[C@H](CCC(N)=O)NC(=O)C(C)(C)NC(=O)[C@@H](N)Cc1ccc(O)cc1)[C@@H](C)O)[C@@H](C)O)C(=O)N[C@@H](Cc1ccc(O)cc1)C(=O)N[C@@H](CC(C)C)C(=O)N[C@@H](CC(=O)O)C(=O)N[C@@H](CCC(=O)O)C(=O)N[C@@H](CCC(=O)O)C(=O)N[C@@H](C)C(=O)N[C@H](C(=O)N[C@@H](CCCNC(=N)N)C(=O)N[C@@H](CC(C)C)C(=O)N[C@@H](Cc1ccccc1)C(=O)N[C@H](C(=O)N[C@@H](CC(N)=O)C(=O)N[C@@H](Cc1c[nH]c2ccccc12)C(=O)N[C@@H](CC(C)C)C(=O)N[C@@H](CC(C)C)C(=O)N[C@@H](C)C(=O)NCC(=O)NCC(=O)N1CCC[C@H]1C(=O)N[C@@H](CO)C(=O)N[C@@H](CO)C(=O)NCC(=O)N[C@@H](C)C(=O)N1CCC[C@H]1C(=O)N1CCC[C@H]1C(=O)N1CCC[C@H]1C(=O)N[C@@H](CO)C(N)=O)C(C)C)C(C)C [mt-201] (H-Y[Aib]QGTFTSDYSIYLDEEAVRLFVNWLLAGGPSSGAPPPS-NH2; N-terminus assumed) | 0.24 |  | 191.67 | 44.44 | exemplary GLP-1/GIP co-agonist peptides |  |  |  |  |  |
| CC[C@H](C)[C@H](NC(=O)[C@H](CO)NC(=O)[C@H](Cc1ccc(O)cc1)NC(=O)[C@H](CC(=O)O)NC(=O)[C@H](CO)NC(=O)[C@@H](NC(=O)[C@H](Cc1ccccc1)NC(=O)[C@@H](NC(=O)CNC(=O)[C@H](CCC(N)=O)NC(=O)C(C)(C)NC(=O)[C@@H](N)Cc1ccc(O)cc1)[C@@H](C)O)[C@@H](C)O)C(=O)N[C@@H](Cc1ccc(O)cc1)C(=O)N[C@@H](CC(C)C)C(=O)N[C@@H](CC(=O)O)C(=O)N[C@@H](CCCCN)C(=O)N[C@@H](CCC(N)=O)C(=O)N[C@@H](C)C(=O)N[C@@H](C)C(=O)NC(C)(C)C(=O)N[C@@H](CCC(=O)O)C(=O)N[C@@H](Cc1ccccc1)C(=O)N[C@H](C(=O)N[C@@H](CS)C(=O)N[C@@H](Cc1c[nH]c2ccccc12)C(=O)N[C@@H](CC(C)C)C(=O)N[C@@H](CC(C)C)C(=O)N[C@@H](C)C(=O)NCC(=O)NCC(=O)N1CCC[C@H]1C(=O)N[C@@H](CO)C(=O)N[C@@H](CO)C(=O)NCC(=O)N[C@@H](C)C(=O)N1CCC[C@H]1C(=O)N1CCC[C@H]1C(=O)N1CCC[C@H]1C(=O)N[C@@H](CO)C(=O)N[C@@H](CCCCN)C(N)=O)C(C)C [mt-289] |  |  |  |  | exhibited activity at the GIP, GLP-1, and glucagon receptors | 0.0766 | 67.75 | 81.25 | 46.58 | EC50 ([2]; GLP-1 Receptor EC50, cAMP luciferase reporter assay as in Example 16): 0.0144 nM; EC50 ([3]; GIP Receptor EC50, cAMP luciferase reporter assay as in Example 16): 0.0234 nM |
| CCCCCCCCCCCCCCCCCC(=O)NCCCC[C@H](NC(=O)[C@H](CO)NC(=O)[C@@H]1CCCN1C(=O)[C@@H]1CCCN1C(=O)[C@@H]1CCCN1C(=O)[C@H](C)NC(=O)CNC(=O)[C@H](CO)NC(=O)[C@H](CO)NC(=O)[C@@H]1CCCN1C(=O)CNC(=O)CNC(=O)[C@H](C)NC(=O)[C@H](CC(C)C)NC(=O)[C@H](CC(C)C)NC(=O)[C@H](Cc1c[nH]c2ccccc12)NC(=O)[C@H](CS)NC(=O)[C@@H](NC(=O)[C@H](Cc1ccccc1)NC(=O)[C@H](CCC(=O)O)NC(=O)C(C)(C)NC(=O)[C@H](C)NC(=O)[C@H](C)NC(=O)[C@H](CCC(N)=O)NC(=O)[C@H](CCCCN)NC(=O)[C@H](CC(=O)O)NC(=O)[C@H](CC(C)C)NC(=O)[C@H](Cc1ccc(O)cc1)NC(=O)[C@@H](NC(=O)[C@H](CO)NC(=O)[C@H](Cc1ccc(O)cc1)NC(=O)[C@H](CC(=O)O)NC(=O)[C@H](CO)NC(=O)[C@@H](NC(=O)[C@H](Cc1ccccc1)NC(=O)[C@@H](NC(=O)CNC(=O)[C@H](CCC(=O)O)NC(=O)C(C)(C)NC(=O)[C@@H](N)Cc1ccc(O)cc1)[C@@H](C)O)[C@@H](C)O)[C@@H](C)CC)C(C)C)C(N)=O [mt-307] |  |  |  |  | exhibited activity at the GIP, GLP-1, and glucagon receptors | 0.288 | 16.61 | 113.29 | 128.35 |  |
